From patent US20210189342A1, “COMPOSITIONS AND METHODS FOR MODULATING MONOCYTE AND MACROPHAGE INFLAMMATORY PHENOTYPES AND IMMUNOTHERAPY USES THEREOF” (Verseau Therapeutics, Inc., priority 2018, published 2021)

Tested on: CD74
Assay: siRNA dose response, CD74 mRNA knockdown, bDNA Assay
Type: cell-based, human
Conditions: THP-1, 24 hr
Description: (§1) Dose response curves for siRNAs were generated in vitro using a variety of cell lines according to Table 4.
(§2) Briefly, cells were seeded in 96-well plates and reverse transfected with siRNA, Lipofectamine® 2000 (0.5 uL/well; ThermoFisher), and, in some cases, a reporter plasmid (50 ng/well). The reporter plasmid (psiCHECK™-2, Promega) encoded both firefly luciferase and the gene of interest fused to renilla luciferase; silencing of the gene of interest results in proportional silencing of renilla luciferase but leaves firefly luciferase unaffected as an internal control.
(§3) After 24 hr incubation at 37° C., mRNA knockdown was measured using an endpoint assay. For targets without a reporter plasmid, a branched DNA (bDNA) assay was performed according to the manufacturer's instructions (QuantiGene® Singleplex Gene Expression Assay, ThermoFisher) to measure both the target gene and GAPDH (housekeeping gene) mRNA. Data are plotted as siRNA concentration (nM) vs. remaining mRNA (ratio of target gene to GAPDH, normalized to mock siRNA-transfected cells). For targets with a reporter plasmid, a Dual-Glo® Luciferase Assay was performed according to the manufacturer's instructions (Promega) to measure firefly and renilla luciferase expression. Data are plotted as siRNA concentration (nM) vs. remaining mRNA (ratio of renilla to firefly luminescence, normalized to mock siRNA-transfected cells).
(§4) For all dose response curves, a 4-parameter logistic model was applied to determine the IC50 of each siRNA sequence (Table 5 and FIG. 2). Data shown in Table 5 and FIG. 2 represent the mean of quadruplicates, +/−standard deviation.

Substance | IC50
XD-09237: siRNA targeting CD74 (sense 5'-ccAuAAuccuuucuGccGAdTsdT-3'; antisense 5'-UCGGcAGAAAGGAUuAUGGdTsdT-3'; as printed in the source, key not given here) | 1.84 nM
XD-09226: siRNA targeting CD74 (sense 5'-cuGGAcAAAcuGAcAGucAdTsdT-3'; antisense 5'-AGACUGUcAGUUUGUCcAGdTsdT-3'; RNA with 2'-O-methyl and phosphorothioate modifications, case key not given here, as printed in the source, key not given here) | 0.143 nM
XD-09223: siRNA targeting CD74 (sense 5'-ggAGcuGucGGGAaGAucAdTsdT-3'; antisense 5'-UGAUCUUCCCGAcAGCUCCdTsdT-3'; as printed in the source, key not given here) | 0.34 nM
XD-09231: siRNA targeting CD74 (sense 5'-aaAccAAGucGGAacAGcAdTsdT-3'; antisense 5'-UGCUGUUCCGACUUGGUUUdTsdT-3'; RNA with 2'-O-methyl and phosphorothioate modifications, case key not given here, as printed in the source, key not given here) | 0.255 nM
XD-09239: siRNA targeting CD74 (sense 5'-ggccAuGGuucAcauuAGAdTsdT-3'; antisense 5'-UCuAAUGUGAACcAUGGCCdTsdT-3'; as printed in the source, key not given here) | 0.07 nM
XD-09227: siRNA targeting CD74 (sense 5'-ggAAcuGGAGGAcccGucudTsdT-3'; antisense 5'-AGACGGGUCCUCcAGUUCCdTsdT-3'; RNA with 2'-O-methyl and phosphorothioate modifications, case key not given here, as printed in the source, key not given here) | 0.583 nM
XD-09230: siRNA targeting CD74 (sense 5'-gacAAAccAAGucgGaacAdTsdT-3'; antisense 5'-UGUUCCGACUUGGUUUGUCdTsdT-3'; as printed in the source, key not given here) | 0.196 nM
XD-09224: siRNA targeting CD74 (sense 5'-gcGcGAccuuAucuccAAcdTsdT-3'; antisense 5'-GUUGGAGAuAAGGUCGCGCdTsdT-3'; as printed in the source, key not given here) | 1.98 nM

Tested on: CD48
Assay: siRNA dose response, CD48 mRNA knockdown, Dual-Glo Luciferase Assay
Type: cell-based, human
Conditions: Hepa1-6 + reporter plasmid, 24 hr
Description: as §1, §2, §3, §4

Substance | IC50
XD-09724: siRNA targeting CD48 (sense 5'-gaAuccAAAuuuAaAGGcAdTsdT-3'; antisense 5'-UGCCUUuAAAUUUGGAUUCdTsdT-3'; as printed in the source, key not given here) | 0.055 nM
XD-09725: siRNA targeting CD48 (sense 5'-cccAAGccuGucAucAAAAdTsdT-3'; antisense 5'-UUUUGAUGAcAGGCUUGGGdTsdT-3'; RNA with 2'-O-methyl and phosphorothioate modifications, case key not given here, as printed in the source, key not given here) | 0.022 nM
XD-09729: siRNA targeting CD48 (sense 5'-uguuAuAcuuGccaAGucAdTsdT-3'; antisense 5'-UGACUUGGcAAGuAuAAcAdTsdT-3'; as printed in the source, key not given here) | 0.015 nM
XD-09722: siRNA targeting CD48 (sense 5'-cuuucGAccAGAAgAuuGudTsdT-3'; antisense 5'-AcAAUCUUCUGGUCGAAAGdTsdT-3'; RNA with 2'-O-methyl and phosphorothioate modifications, case key not given here, as printed in the source, key not given here) | 0.014 nM
XD-09720: siRNA targeting CD48 (sense 5'-cucuGGAAuuGcuacuGcudTsdT-3'; antisense 5'-AGcAGuAGcAAUUCcAGAGdTsdT-3'; as printed in the source, key not given here) | 0.012 nM
XD-09726: siRNA targeting CD48 (sense 5'-acAAcuGuuAucugAAAcudTsdT-3'; antisense 5'-AGUUUcAGAuAAcAGUUGUdTsdT-3'; as printed in the source, key not given here) | 0.017 nM
XD-09721: siRNA targeting CD48 (sense 5'-cuAAccuGGuuuuauAcuudTsdT-3'; antisense 5'-AAGuAuAAAACcAGGUuAGdTsdT-3'; RNA with 2'-O-methyl and phosphorothioate modifications, case key not given here, as printed in the source, key not given here) | 0.009 nM
XD-09728: siRNA targeting CD48 (sense 5'-cuGGcGAGucuGuaAAcuAdTsdT-3'; antisense 5'-UagUUuAcAGACUCGCcAGdTsdT-3'; as printed in the source, key not given here) | 0.032 nM
XD-09723: siRNA targeting CD48 (sense 5'-uccAGAAAAucuAaGuAcudTsdT-3'; antisense 5'-AGuACUuAGAUUUUCUGGAdTsdT-3'; as printed in the source, key not given here) | 0.03 nM
XD-09727: siRNA targeting CD48 (sense 5'-ccuGGcGAGucuGuAAAcudTsdT-3'; antisense 5'-AGUUuAcAGACUCGCcAGGdTsdT-3'; as printed in the source, key not given here) | 0.046 nM

Tested on: SIGLEC7
Assay: siRNA dose response, SIGLEC7 mRNA knockdown, Dual-Glo Luciferase Assay
Type: cell-based, human
Conditions: Hepa1-6 + reporter plasmid, 24 hr
Description: as §1, §2, §3, §4

Substance | IC50
XD-10604: siRNA targeting SIGLEC7 (sense 5'-ggAAGGAuuAcucgcuGasa-3'; antisense 5'-dTUcAGCGAGuAAUCCUUCCusu-3'; RNA with 2'-O-methyl and phosphorothioate modifications, case key not given here, as printed in the source, key not given here) | 0.032 nM
XD-10601: siRNA targeting SIGLEC7 (sense 5'-gaGuAACcGGAAGgAuuasa-3'; antisense 5'-dTUAAUCCUUCCGGUuACUCusu-3'; RNA with 2'-O-methyl and phosphorothioate modifications, case key not given here, as printed in the source, key not given here) | 0.127 nM
XD-10609: siRNA targeting SIGLEC7 (sense 5'-ggAAuGAuAuAAGcuGGasa-3'; antisense 5'-dTUCcAGCUuAuAUCAUUCCusu-3'; as printed in the source, key not given here) | 0.059 nM
XD-10605: siRNA targeting SIGLEC7 (sense 5'-ggAuuACucGcuGacGAusa-3'; antisense 5'-dTAUCGUcAGCGAGUAAUCCusu-3'; RNA with 2'-O-methyl and phosphorothioate modifications, case key not given here, as printed in the source, key not given here) | 0.022 nM
XD-10600: siRNA targeting SIGLEC7 (sense 5'-agAGuAAccGGAAgCAuusa-3'; antisense 5'-dTAAUCCUUCCGGUUACUCUusu-3'; RNA with 2'-O-methyl and phosphorothioate modifications, case key not given here, as printed in the source, key not given here) | 0.155 nM
XD-10603: siRNA targeting SIGLEC7 (sense 5'-cgGAAGGAuuAcucGcugsa-3'; antisense 5'-dTCAGCGAGuAAUCCUUCCGusu-3'; RNA with 2'-O-methyl and phosphorothioate modifications, case key not given here, as printed in the source, key not given here) | 0.029 nM
XD-10602: siRNA targeting SIGLEC7 (sense 5'-guAAccGGAAGGAuuAcusa-3'; antisense 5'-dTAGuAAUCCUUCCGGUuACusu-3'; RNA with 2'-O-methyl and phosphorothioate modifications, case key not given here, as printed in the source, key not given here) | 3.53 nM
XD-10607: siRNA targeting SIGLEC7 (sense 5'-cgGGcAGGGAAuGauAuasa-3'; antisense 5'-dTUAuAUcAUUCCCUGCCCGusu-3'; as printed in the source, key not given here) | 0.039 nM
XD-10606: siRNA targeting SIGLEC7 (sense 5'-ccGuGcAAGAGGGcAuGusa-3'; antisense 5'-dTAcAUGCCCUCUUGcACGGusu-3'; RNA with 2'-O-methyl and phosphorothioate modifications, case key not given here, as printed in the source, key not given here) | 0.045 nM
XD-10608: siRNA targeting SIGLEC7 (sense 5'-gcAGGGAAuGAuAuAAGcsa-3'; antisense 5'-dTGCUuAuAUcAUUCCCUGCusu-3'; as printed in the source, key not given here) | 0.056 nM
